Measurements taken from patent publication US20240360126A1, “PYRAZOLO[3,4-B]PYRIDINE COMPOUNDS FOR THE TREATMENT OF AUTOIMMUNE DISEASE” (Hoffmann-La Roche Inc., priority 2021, published 2024).

Legend:
[1] = Human microsome stability assay; type: in vitro ADME; settings: 1 μM test compound, 0.5 mg/mL liver microsomal protein, 37° C.
Procedure: The human microsomal stability assay is used for early assessment of metabolic stability of a test compound in human liver microsomes.
Human liver microsomes (Cat. NO.: 452117, Corning, USA; Cat. NO.:H2610, Xenotech, USA) were preincubated with test compound for 10 minutes at 37° C. in 100 mM potassium phosphate buffer, pH 7.4. The reactions were initiated by adding NADPH regenerating system.
The final incubation mixtures contained 1 μM test compound, 0.5 mg/mL liver microsomal protein, 1 mM MgCl2, 1 mM NADP, 1 unit/mL isocitric dehydrogenase and 6 mM isocitric acid in 100 mM potassium phosphate buffer, pH 7.4. After incubation times of 0, 3, 6, 9, 15 and 30 minutes at 37° C., 300 μL of cold acetonitrile (including internal standard) was added to 100 μL incubation mixture to terminate the reaction. Following precipitation and centrifugation, the amount of compound remaining in the samples were determined by LC-MS/MS. Controls of no NADPH regenerating system at zero and 30 minutes were also prepared and analyzed.

TLR9 = target: T1, TLR9 (Homo sapiens, UniProt Q9NR96); test: HEK293-Blue-hTLR-9 cells assay; type: cell-based; design: host or cells: HEK293 (HEK-Blue hTLR9); settings: HEK293-Blue-hTLR9 cells, ODN2006 stimulation, 20 hrs; read-out: HEK/hTLR9 IC50
T1 sequence (Q9NR96 26-1032): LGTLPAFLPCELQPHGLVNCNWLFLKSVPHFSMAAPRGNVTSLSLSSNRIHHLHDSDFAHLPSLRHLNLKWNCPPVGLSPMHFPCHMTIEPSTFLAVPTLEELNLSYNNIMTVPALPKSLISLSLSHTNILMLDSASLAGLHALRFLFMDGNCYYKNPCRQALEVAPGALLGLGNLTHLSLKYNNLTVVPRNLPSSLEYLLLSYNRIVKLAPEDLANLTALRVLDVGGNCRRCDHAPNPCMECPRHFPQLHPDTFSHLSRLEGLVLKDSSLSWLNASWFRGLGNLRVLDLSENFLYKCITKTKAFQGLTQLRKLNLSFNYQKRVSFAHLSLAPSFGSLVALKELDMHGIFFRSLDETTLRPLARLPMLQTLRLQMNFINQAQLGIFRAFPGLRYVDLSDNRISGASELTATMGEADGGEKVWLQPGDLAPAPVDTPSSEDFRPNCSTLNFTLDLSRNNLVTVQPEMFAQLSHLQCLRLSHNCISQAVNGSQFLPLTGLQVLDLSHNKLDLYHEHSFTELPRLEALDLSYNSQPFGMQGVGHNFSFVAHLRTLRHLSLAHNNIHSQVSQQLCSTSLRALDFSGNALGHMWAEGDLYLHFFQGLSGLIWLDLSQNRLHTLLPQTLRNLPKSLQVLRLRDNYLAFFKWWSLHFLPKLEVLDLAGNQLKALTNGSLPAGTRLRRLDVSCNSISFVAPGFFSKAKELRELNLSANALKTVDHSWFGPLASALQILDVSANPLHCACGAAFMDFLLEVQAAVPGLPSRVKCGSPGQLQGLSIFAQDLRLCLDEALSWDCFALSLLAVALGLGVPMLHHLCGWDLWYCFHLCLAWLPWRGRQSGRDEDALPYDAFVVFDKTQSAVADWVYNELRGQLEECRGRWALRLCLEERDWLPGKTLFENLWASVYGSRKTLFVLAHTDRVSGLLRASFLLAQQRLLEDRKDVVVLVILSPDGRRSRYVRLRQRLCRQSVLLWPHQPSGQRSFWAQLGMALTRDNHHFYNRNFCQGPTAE
Text: A stable HEK293-Blue-hTLR-9 cell line was purchased from InvivoGen (Cat. #: hkb-htlr9, San Diego, California, USA). These cells were originally designed for studying the stimulation of human TLR9 by monitoring the activation of NF-κB. A SEAP (secreted embryonic alkaline phosphatase) reporter gene was placed under the control of the IFN-β minimal promoter fused to five NF-κB and AP-1-binding sites. The SEAP was induced by activating NF-κB and AP-1 via stimulating HEK-Blue hTLR9 cells with TLR9 ligands. Therefore the reporter expression was declined by TLR9 antagonist under the stimulation of a ligand, such as ODN2006 (Cat. #: tlrl-2006-1, Invivogen, San Diego, California, USA), for incubation of 20 hrs. The cell culture supernatant SEAP reporter activity was determined using QiANTI-Blue™ kit (Cat. #: rep-qbl, Invivogen, San Diego, California, USA) at a wavelength of 640 nm, a detection medium that turns purple or blue in the presence of alkaline phosphatase.
HEK293-Blue-hTLR9 cells were incubated at a density of 250,000-450,000 cells/mL in a volume of 170 μL in a 96-well plate in Dulbecco's Modified Eagle's medium (DMEM) containing 4.5 g/L glucose, 50 U/mL penicillin, […], […], 10% (v/v) heat-inactivated fetal bovine serum with addition of 20 μL test compound in a serial dilution in the presence of final DMSO at 1% and 10 μL of 20 μM ODN2006 in above DMEM, perform incubation under 37° C. in a C02 incubator for 20 hrs. Then 20 μL of the supernatant from each well was incubated with 180 μl. Quanti-blue substrate solution at 37° C. for 2 h and the absorbance was read at 620˜655 nm using a spectrophotometer. The signaling pathway that TLR9 activation leads to downstream NF-κB activation has been widely accepted, and therefore similar reporter assay was modified for evaluating TLR9 antagonist.

SMILES	Clearance of Human microsome [1] [mL/min/kg]	IC50 (TLR9) [nM]
Cc1cc(N2CCC(c3cnc(N4CCNCC4)cc3C)[C@H](C)C2)c2cnn(C)c2n1 (single isomer, unassigned) [Example 20, 1,6-dimethyl-4-[cis-3-methyl-4-(4-methyl-6-piperazin-1-yl-3-pyridyl)-1-piperidyl]pyrazolo[3,4-b]pyridine]	9.0	220
Cc1cc(N2CCC(c3ncc(N4CCNCC4)cc3C)[C@H](C)C2)c2cnn(C)c2n1 (single isomer, unassigned) [Example 24, 1,6-dimethyl-4-[cis-3-methyl-4-(3-methyl-5-piperazin-1-yl-2-pyridyl)-1-piperidyl]pyrazolo[3,4-b]pyridine]	–	76
Cc1cc(N2CCC(c3ncc(N4CCNCC4)cc3C)[C@H](C)C2)c2cnn(C)c2n1 (single isomer, unassigned) [Example 25, 1,6-dimethyl-4-[trans-3-methyl-4-(3-methyl-5-piperazin-1-yl-2-pyridyl)-1-piperidyl]pyrazolo[3,4-b]pyridine]	–	98
Cc1cc(N2CCC(c3ncc(N4CC[C@@H](N)[C@@H](F)C4)cc3C)CC2)c2cnn(C)c2n1 [Example 15, (3S,4R)-1-[6-[1-(1,6-dimethylpyrazolo[3,4-b]pyridin-4-yl)-4-piperidyl]-5-methyl-3-pyridyl]-3-fluoro-piperidin-4-amine]	–	130
COC[C@H]1CN(c2cnc(C3CCN(c4cc(C)nc5c4cnn5C)CC3)c(C)c2)CCN1 [Example 16, 4-[4-[5-[(3R)-3-(methoxymethyl)piperazin-1-yl]-3-methyl-2-pyridyl]-1-piperidyl]-1,6-dimethyl-pyrazolo[3,4-b]pyridine]	–	143
CO[C@H]1CN(c2cnc(C3CCN(c4cc(C)nc5c4cnn5C)CC3)c(C)c2)CC[C@@H]1N [Example 17, (3S,4S)-1-[6-[1-(1,6-dimethylpyrazolo[3,4-b]pyridin-4-yl)-4-piperidyl]-5-methyl-3-pyridyl]-3-methoxy-piperidin-4-amine]	–	73
CO[C@@H]1CN(c2cnc([C@@H]3CCN(c4cc(C)nc5c4cnn5C)C[C@H]3C)c(C)c2)C[C@H]1N [Example 26, (3R,4R)-1-[6-[(3S,4R)-1-(1,6-dimethylpyrazolo[3,4-b]pyridin-4-yl)-3-methyl-4-piperidyl]-5-methyl-3-pyridyl]-4-methoxy-pyrrolidin-3-amine]	–	109
Cc1cc(N2CC[C@@H](c3ncc(N4CC[C@@H](N)[C@H](F)C4)cc3C)[C@H](C)C2)c2cnn(C)c2n1 [Example 31, (3R,4R)-1-[6-[(3S,4R)-1-(1,6-dimethylpyrazolo[3,4-b]pyridin-4-yl)-3-methyl-4-piperidyl]-5-methyl-3-pyridyl]-3-fluoro-piperidin-4-amine]	–	219
CO[C@@H]1CN(c2ccc([C@H]3CCN(c4cc(C)nc5c4cnn5C)C[C@@H]3C)nc2)C[C@H]1N [Example 36, (3R,4R)-1-[6-[(3R,4S)-1-(1,6-dimethylpyrazolo[3,4-b]pyridin-4-yl)-3-methyl-4-piperidyl]-3-pyridyl]-4-methoxy-pyrrolidin-3-amine]	–	170

Continued, values first:

Clearance of Human microsome [1] [mL/min/kg]	IC50 (TLR9) [nM]	SMILES
7.8	372	Cc1cc(N2CCC(c3cnc(N4CCNCC4)cc3C)[C@H](C)C2)c2cnn(C)c2n1 (single isomer, unassigned) [Example 21, 1,6-dimethyl-4-[trans-3-methyl-4-(4-methyl-6-piperazin-1-yl-3-pyridyl)-1-piperidyl]pyrazolo[3,4-b]pyridine]
–	315	Cc1cc(N2CCC(c3ncc(N4CCNCC4)nc3C)[C@H](C)C2)c2cnn(C)c2n1 (single isomer, unassigned) [Example 22, 1,6-dimethyl-4-[cis-3-methyl-4-(3-methyl-5-piperazin-1-yl-pyrazin-2-yl)-1-piperidyl]pyrazolo[3,4-b]pyridine]
–	368	Cc1cc(N2CCC(c3ncc(N4CCNCC4)nc3C)[C@H](C)C2)c2cnn(C)c2n1 (single isomer, unassigned) [Example 23, 1,6-dimethyl-4-[trans-3-methyl-4-(3-methyl-5-piperazin-1-yl-pyrazin-2-yl)-1-piperidyl]pyrazolo[3,4-b]pyridine]
–	275	Cc1cc(N2CCC(c3ccc(N4CCNCC4)cc3)CC2)c2cnn(C)c2n1 [Example 1, 1,6-dimethyl-4-[4-(4-piperazin-1-ylphenyl)-1-piperidyl]pyrazolo[3,4-b]pyridine]
8.2	142	Cc1cc(N2CCC(c3ccc(N4CCNCC4)cn3)CC2)c2cnn(C)c2n1 [Example 2, 1,6-dimethyl-4-[4-(5-piperazin-1-yl-2-pyridyl)-1-piperidyl]pyrazolo[3,4-b]pyridine]
9.3	124	Cc1cc(N2CCC(c3cnc(N4CCNCC4)cn3)CC2)c2cnn(C)c2n1 [Example 3, 1,6-dimethyl-4-[4-(5-piperazin-1-ylpyrazin-2-yl)-1-piperidyl]pyrazolo[3,4-b]pyridine]
–	379	Cc1cc(N2CCC(c3ncc(N4CCNCC4)cn3)CC2)c2cnn(C)c2n1 [Example 4, 1,6-dimethyl-4-[4-(5-piperazin-1-ylpyrimidin-2-yl)-1-piperidyl]pyrazolo[3,4-b]pyridine]
–	195	Cc1cc(N2CCC(c3cnc(N4CCNCC4)cc3C)CC2)c2cnn(C)c2n1 [Example 8, 1,6-dimethyl-4-[4-(4-methyl-6-piperazin-1-yl-3-pyridyl)-1-piperidyl]pyrazolo[3,4-b]pyridine]
–	120	Cc1cc(N2CCC(c3cc(C)c(N4CCNCC4)cn3)CC2)c2cnn(C)c2n1 [Example 9, 1,6-dimethyl-4-[4-(4-methyl-5-piperazin-1-yl-2-pyridyl)-1-piperidyl]pyrazolo[3,4-b]pyridine]
–	212	Cc1cc(N2CCC(c3ccc(N4CCNCC4)nc3C)CC2)c2cnn(C)c2n1 [Example 10, 1,6-dimethyl-4-[4-(2-methyl-6-piperazin-1-yl-3-pyridyl)-1-piperidyl]pyrazolo[3,4-b]pyridine]
–	104	Cc1cc(N2CCC(c3cnc(N4CCNCC4)nc3C)CC2)c2cnn(C)c2n1 [Example 11, 1,6-dimethyl-4-[4-(4-methyl-2-piperazin-1-yl-pyrimidin-5-yl)-1-piperidyl]pyrazolo[3,4-b]pyridine]
